Test results taken from patent US20250282746A1, “HALOGEN-SUBSTITUTED ISOINDOLINE COMPOUND AND USE THEREOF” (CHENGDU FENDI PHARMACEUTICAL CO., LTD., priority 2022, published 2025).
pIC50: −log10 of the molar value. Where two headings read alike, the source gives them in different places.

Tests used:
U937 cells = experiment: Antiproliferative activity against various tumor cells: U937; assay type: cell-based; settings: Homo sapiens, read-out: Antiproliferative activity IC50 U937
Procedure: (§1) U937, NCI-H929, AML-2, and MOLM-13 cells in the logarithmic growth phase were diluted in media RPMI+10% FBS, RPMI+10% FBS, MEMα+20% FBS, RPMI+20% FBS, respectively, and plated at 4,000 cells/well in 96-well whole black plates (WHB) with 50 μL/well. After plating, the plates were incubated in an incubator at 5% CO2 and 37° C. for 24 h before the compounds were added. The compounds were prepared into a 10 mM stock solution in DMSO and diluted in a culture medium to the desired concentrations (a final DMSO concentration of 0.2%). […] The plates were incubated at 5% CO2 and 37° C. for 72 h. After the incubation was complete, the plates were equilibrated at room temperature for 30 min. CellTiter-Glo® Reagent (Promega G7573) was added at 100 μL/well. The plates were shaken for 12 min on a microplate shaker. The luminescence value was measured at room temperature by the GloMax navigator (Promega GM2010).

MOLM-13 cells = experiment: Antiproliferative activity against various tumor cells: MOLM-13; assay type: cell-based; settings: Homo sapiens, read-out: Antiproliferative activity IC50 MOLM-13
Procedure: as §1

GSPT1 protein = molecular target: T1, GSPT1 protein (Homo sapiens, UniProt P15170); experiment: Degradation of GSPT1 protein in NB-4 cells (Western blot); assay type: cell-based; settings: for inhibition at 1 µM: read-out: GSPT1 degradation
T1 construct: The whole cell lysate was prepared using a RIPA lysis buffer; endogenous in cells; host or cells: NB-4 cells
In short: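 GSPT1 levels were read by Western blot (4-20% SDS-PAGE, PVDF, overnight primary antibody at 4 °C) on lysates of NB-4 cells.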

NCI-H929 cells = experiment: Antiproliferative activity against various tumor cells: NCI-H929; assay type: cell-based; settings: Homo sapiens, read-out: Antiproliferative activity IC50 NCI-H929
Procedure: as §1

MV-4-11-Luc xenograft = experiment: Efficacy in acute myeloid leukemia MV-4-11-luc xenograft mouse model; assay type: in vivo; settings: 10 mg/kg orally twice daily, NSG mice
Excerpt: In an in vivo efficacy study, female immunocompromised NSG mice aged 6 to 8 weeks were used and the experimental procedures started after the animals were acclimatized in the experimental environment for 7 days. The animals were housed in SPF animal rooms in individually ventilated cages (IVCs) each containing 6 mice. Human acute myeloid leukemia MV-4-11 cells expressing luciferase (MV-4-11-luc) were grafted into mice by tail vein injection (5×10^6 cells/mouse). Seven days after the cell grafting, the mice were subjected to imaging on the IVIS Lumina III small animal imaging system for grouping and administration, and tumor-bearing mice were randomized to the vehicle control group or treatment groups (6 mice/group). The compound (10 mg/kg, twice daily) was administered to the animals in each treatment group by oral gavage. The body weight was measured daily, while mean luminescence was measured after the start of treatment with the compounds or vehicle.
Indicators: The indicators were to investigate whether the tumor growth was inhibited or delayed or the tumor was cured. The tumor size was measured twice weekly using the IVIS Lumina III small animal imaging system. The tumor signals were determined by exposure photons per second. The anti-tumor efficacy of the compounds was evaluated by the tumor proliferation rate T/C (%). T/C %=TRTV/CRTV×100% (TRTV: the RTV of the treatment group; CRTV: the RTV of negative control group; RTV=Vt/V0, where V0 is the tumor signal measured at the time of grouping and administration (i.e., day 0), and Vt is the tumor signal at every measurement). According to the guidelines of the Center for Drug Evaluation, NMPA, a T/C (%) of >40% denotes the absence of efficacy, while a T/C of <40% with P<0.05 denotes the presence of efficacy.

CK1α = molecular target: T2, CK1α (Homo sapiens, UniProt P48729); experiment: Degradation of CK1α protein in HL-60 cells (Western blot); assay type: cell-based; settings: 4 h
T2 construct: The whole cell lysate was prepared using a RIPA lysis buffer; endogenous in cells; host or cells: HL-60 cells
Procedure: (§2) […] of DMSO and the compounds were added, and the mixture was incubated in an incubator at 5% CO2 and 37° C. for 4 h. The cells were centrifuged, and the culture medium was discarded. PBS was added for washing and then discarded. The whole cell lysate was prepared using a RIPA lysis buffer containing a protease inhibitor cocktail and a phosphatase inhibitor, and incubated on ice for 30 min. The mixture was centrifuged, and the cell debris was discarded. The whole cell lysate supernatant was collected and transferred to a fresh EP tube. Samples were prepared using a loading buffer after a BCA protein assay. The samples were incubated in a metal bath at 100° C. for 10 min. The samples were electrophoretically separated from proteins on a 4-20% precast gel (SDS-PAGE gel), transferred to a PVDF membrane, blocked with 5% NFDM/TBST for 1 h at room temperature, co-incubated overnight at 4° C. with the primary antibody, and co-incubated for 2 h at room temperature with the secondary antibody on the next day. The signals were detected on the […]™ imaging system.

IKZF3 = molecular target: T3, IKZF3 (Homo sapiens, UniProt Q9UKT9); experiment: Degradation of IKZF3 protein in HL-60 cells (Western blot); assay type: cell-based; settings: 4 h
T3 construct: The whole cell lysate was prepared using a RIPA lysis buffer; endogenous in cells; host or cells: HL-60 cells
Procedure: as §2

T2 sequence (P48729 whole entry): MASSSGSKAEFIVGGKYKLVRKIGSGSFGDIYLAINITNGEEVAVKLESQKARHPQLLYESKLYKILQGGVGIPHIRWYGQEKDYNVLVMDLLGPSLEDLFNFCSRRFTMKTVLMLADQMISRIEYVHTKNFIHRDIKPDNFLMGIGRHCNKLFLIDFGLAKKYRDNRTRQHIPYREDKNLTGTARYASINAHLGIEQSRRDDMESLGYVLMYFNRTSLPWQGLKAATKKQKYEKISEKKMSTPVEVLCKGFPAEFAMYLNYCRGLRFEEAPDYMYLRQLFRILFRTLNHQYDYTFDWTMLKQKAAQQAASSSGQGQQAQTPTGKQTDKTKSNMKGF
T1 sequence (P15170 whole entry): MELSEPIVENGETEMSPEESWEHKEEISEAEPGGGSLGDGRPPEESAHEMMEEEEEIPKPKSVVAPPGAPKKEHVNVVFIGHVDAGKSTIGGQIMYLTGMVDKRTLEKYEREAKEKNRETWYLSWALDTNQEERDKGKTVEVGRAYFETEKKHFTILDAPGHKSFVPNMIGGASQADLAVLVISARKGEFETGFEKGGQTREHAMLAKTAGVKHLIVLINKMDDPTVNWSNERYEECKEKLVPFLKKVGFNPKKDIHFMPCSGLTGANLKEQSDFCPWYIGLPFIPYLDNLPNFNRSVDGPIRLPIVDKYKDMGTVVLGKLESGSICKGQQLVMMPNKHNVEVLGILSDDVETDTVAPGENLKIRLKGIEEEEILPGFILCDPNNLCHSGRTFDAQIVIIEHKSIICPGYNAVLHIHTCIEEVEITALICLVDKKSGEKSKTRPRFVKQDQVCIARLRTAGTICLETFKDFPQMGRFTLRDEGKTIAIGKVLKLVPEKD
T3 sequence (Q9UKT9 whole entry): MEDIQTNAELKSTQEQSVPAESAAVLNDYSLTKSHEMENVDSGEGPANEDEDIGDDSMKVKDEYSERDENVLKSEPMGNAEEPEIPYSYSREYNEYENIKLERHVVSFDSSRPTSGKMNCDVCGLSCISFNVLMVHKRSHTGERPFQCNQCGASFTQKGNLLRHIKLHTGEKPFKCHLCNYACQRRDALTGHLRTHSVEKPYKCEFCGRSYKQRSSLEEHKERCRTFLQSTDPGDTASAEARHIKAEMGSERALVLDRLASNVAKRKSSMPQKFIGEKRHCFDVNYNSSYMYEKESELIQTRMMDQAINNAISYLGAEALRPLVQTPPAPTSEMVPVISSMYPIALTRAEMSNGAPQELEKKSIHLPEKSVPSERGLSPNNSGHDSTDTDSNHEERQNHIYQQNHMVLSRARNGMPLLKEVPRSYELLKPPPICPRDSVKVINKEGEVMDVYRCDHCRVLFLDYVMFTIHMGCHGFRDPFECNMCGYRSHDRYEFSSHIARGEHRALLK

Structure (SMILES)	pIC50 (U937 cells; U-937, 72 h)	pIC50 (MOLM-13 cells; MOLM-13, 72 h)	inhibition at 1 µM (GSPT1 protein; NB-4, 6 h) [%]	degradation of GSPT1 protein (GSPT1 protein; co-incubated for 6 h with NB-4 cells) [%]	pIC50 (NCI-H929 cells; NCI-H929, 72 h)	T/C (%) Day 3 (MV-4-11-Luc xenograft) [%]	T/C (%) Day 7 (MV-4-11-Luc xenograft) [%]	T/C (%) Day 10 (MV-4-11-Luc xenograft) [%]	T/C (%) Day 14 (MV-4-11-Luc xenograft) [%]	CK1α degradation (CK1α; 10 nM)	CK1α degradation (CK1α; 100 nM)	CK1α degradation (CK1α; 1000 nM)	IKZF3 degradation (IKZF3; 10 nM)	IKZF3 degradation (IKZF3; 100 nM)	IKZF3 degradation (IKZF3; 1000 nM)	pIC50 (U937 cells; U-937, U937 cells, 72 h)	pIC50 (MOLM-13 cells; MOLM-13 cells, 72 h)	inhibition at 1 µM (GSPT1 protein; NB-4 cells, compound 1 μM, 6 h) [%]	pIC50 (NCI-H929 cells; NCI-H929 cells, 72 h)
O=C1CCC(N2Cc3c(ccc(CNC(=O)c4ccc(Cl)cc4)c3F)C2=O)C(=O)N1 (centres unmarked) [FDAB-48]	7.00 to 8.00	7.00 to 8.00	> 80	88	8.00 to 9.00	0.95	0.22	0.10	0.05	D (D denotes a percentage of degradation less than 25%)	D (D denotes a percentage of degradation less than 25%)	D (D denotes a percentage of degradation less than 25%)	C (C denotes a percentage of degradation less than 500% but not less than 250%)	B (B denotes a percentage of degradation less than 800% but not less than 500%)	A (A denotes a percentage of GSPT1 protein degradation not less than 8000)				
Cc1ccc(C(=O)NCc2ccc3c(c2F)CN(C2CCC(=O)NC2=O)C3=O)c(F)c1 (centres unmarked) [FDAB-121]						0.32	0.06	0.02	0.00	D (D denotes a percentage of degradation less than 25%)	D (D denotes a percentage of degradation less than 25%)	C (C denotes a percentage of degradation less than 500% but not less than 250%)	D (D denotes a percentage of degradation less than 25%)	B (B denotes a percentage of degradation less than 800% but not less than 500%)	B (B denotes a percentage of degradation less than 800% but not less than 500%)	7.00 to 8.00	7.00 to 8.00	> 80	8.00 to 9.00
